# Patent US11357778B2, “Antagonist of the fibroblast growth factor receptor 3 (FGFR3) for use in the treatment or the prevention of skeletal disorders linked with abnormal activation of FGFR3” (INSTITUT NATIONAL DE LA SANTE ET DE LE RECHERCHE MEDICALE …, priority 2011, dated 2022)
# Experiments:
# [1] = test system: FGFR3^Y373C, FGFR3^K650E, FGFR3^K650M; experiment: Constitutive FGFR3 phosphorylation in transfected human chondrocyte lines / HEK cells (immunoprecipitation, immunoblot, immunocytochemistry); assay type: cell-based
# Method: Human Embryonic Kidney (HEK) cells and human chondrocyte lines (Benoist-Lasselin et al., FEBS Lett, 581: 2593-2598, 2007.) were transfected transiently with FGFR3 human constructs (FGFR^3Y373C, FGFR3^K650M, FGFR3^K650E) (Gibbs, L. and Legeai-Mallet, L. Biochim Biophys Acta, 1773: 502-512, 2007) using Fugene 6 (Roche). A31 (31) or PD173074 (Parke Davies) were added at a concentration of 2 mM overnight. Transfected cells were lysed in RIPA buffer (50 mM Tris-HCl pH 7.6, 150 mM NaCl, 0.5% NP40, 0.25% sodium deoxycholate, supplemented with protease and phosphatase inhibitors).
# Immunoprecipitation were performed by incubating […] rabbit anti-FGFR3 (Sigma)/[…] protein with protein A-agarose (Roche). […] Bound proteins were detected by chemiluminescence (ECL, Amersham). The blots were rehybrididized with an antipan-actin antibody for quantification (Millipore).
# For immunocytochemistry, the inventors used the following primary antibodies: anti-FGFR3 antibodies (1:400 dilution; Sigma) and anti-phosphotyrosine antibodies (1:200 dilution; Cell Signaling) and secondary antibodies Alexa Fluor®488 goat antirabbit and Alexa Fluor®568 goat anti-mouse (1:400 dilution; Molecular Probes). Cells were covered with Faramount Aquaeous Mounting Medium (Dako) and analyzed using an Olympus PD70-IX2-UCB microscope. […]
# Fgfr3^Y367C/+ femurs = experiment: Ex vivo culture of E16.5 embryonic femur explants, bone length; assay type: cell-based, mouse
# Method: Six sets of ex vivo experiments were performed. Femur embryos at day E16.5 from WT (n=6) and Fgfr3^Y367C/+ (n=6) mice were used and incubated for 5 days in DMEM medium with antibiotics and 0.2% BSA (Sigma) supplemented with A31 or PD173074 (as control) at a concentration of 2 mM. Right femur was cultured in supplemented medium and compared with the left one cultured in control medium. Rib cage from E16.5 WT and Fgfr3^Y367C/+ mice embryos were isolated and stripped of all soft tissues. Primary chondrocytes were obtained from rib cages. The ribs were incubated in a pronase solution (Roche; 2 mg/ml) followed by a digestion in Collagenase A (Roche; 3 mg/ml) at 37° C. Isolated chondrocytes were plated out at a density of 2.105 cells in 6-well plates containing DMEM supplemented with 10% FCS and antibiotics, and were allowed to reach subconfluency. Cultures were supplemented with A31 or PD173074 (as control) at a concentration of 2 mM. Cells were treated with A31 (2 mM) PD173074 (as control) in serum-free DMEM supplemented with 0.2% BSA and harvested after 24 h. To establish the effect of the inhibitors, the right femur was cultured in supplemented medium and compared with the left one cultured in control medium The bone length was measured at the beginning (before treatment) and at the end of time course. Each experiment was repeated at least three times. The genotype of WT, Fgfr3^Y367C/+ and Fgfr3^−/− mice were determined by PCR of tail DNA as previously described (Pannier et al., Biochim Biophys Acta, 1792: 140-147, 2009). All experimental procedures and protocols were approved by the Animal Care and Use Committee.
# Fgfr3^Y367C/+ mice display reduced length of long bones, broad femurs, a narrow trunk, short ribs and a slightly dome-shaped skull, closely resembling achondroplasia (FIGS. 3A and B). The inventors analyzed the effects of A31 on endochondral ossification in Fgfr3^Y367C/+ mice by using an ex vivo culture system for embryonic day 16.5 (E16.5) limb explants. […] After 5 days of culture, the increase in length of the treated mutant femurs was 2.6 times more than for that of WT.
# Thus, embryonic femur explants were co-incubated with 150 nM of PD173074 for 5 days.
# Embryonic femur explants were co-incubated 100 nM (10^−7M) or 1 μM (10^−6M) of BGJ-398 for 6 days.
# [2] = test system: Fgfr3^Y367C/+ growth plate; experiment: Histology of cultured femur growth plate (HES staining, type X collagen in situ hybridization); assay type: cell-based, mouse
# Method: Limb explants were fixed after culture in 4% paraformaldehyde at 4° C., and placed in a staining solution for 45-60 minutes (0.05% Alizarin Red, 0.015% Alcian Blue, 5% acetic acid in 70% ethanol) or embedded in paraffin. Serial […] were stained with Hematoxylin-Eosin using standard protocols for histological analysis or were subjected to in situ hybridization or immunohistochemical staining. In situ hybridization using [S35]-UTP labeled antisense ribopropes for collagen X was carried out as previously described (Delezoide et al., Hum Mol Genet, 6, 1899-1906, 1997). Sections were counterstained with Hematoxylin. For immunohistochemistry, sections were stained with antibodies specific to FGFR3 (1:250 dilution; Sigma), anti PCNA (1:1000 dilution; Abcam), anti-KI67 (1:300; Abcam), anti-cyclin D1 (1:80 dilution; Santa Cruz) and anti-p57 (1:100 dilution; Santa Cruz) using the Dako Envision kit. Images were captured with an Olympus PD70-IX2-UCB microscope. […] The inventors evaluated the impact of A31 on the growth plate (FIG. 4A). […] Histological examinations using HES staining (FIG. 10A) and type X collagen labeling (FIG. 10B) were also carried out.
smiles,measurement,setting,value
COc1cc(OC)cc(-c2cc3cnc(NCc4cn(CC5CCCN(C)C5)nn4)nc3nc2NC(=O)NC(C)(C)C)c1 (centres unmarked) [Compound A31],constitutive FGFR3 receptor phosphorylation (immunoprecipitation and Western blotting),"[1]; 2 mM overnight, cells expressing FGFR3^Y373C, FGFR3^K650E, FGFR3^K650M",abolished receptor phosphorylation
same,FGFR3 phosphorylation by immunocytochemistry,"[1]; transfected cells expressing FGFR3 mutations, data not shown",complete inhibition
same,limb growth in Fgfr3^Y367C/+ femurs (in words),"Fgfr3^Y367C/+ femurs; A31 2 mM, 5 days",fully restore limb growth
same,longitudinal bone growth (gain in femur length),"Fgfr3^Y367C/+ femurs; A31 2 mM, 5 days of culture, Fgfr3^Y367C/+ femurs",1880±558 μm
same,increase in length of treated mutant femurs relative to WT,"Fgfr3^Y367C/+ femurs; A31, after 5 days of culture",2.6 times
same,size of the hypertrophic zone of the growth plate,"[2]; A31, Fgfr3^Y367C/+ femur explants",marked expansion of the hypertrophic zone
same,type X collagen expression (in situ hybridization),"[2]; A31, Fgfr3^Y367C/+ growth plates",enhanced type X collagen expression
same,chondrocyte morphology,"[2]; A31, data not shown",enlarged and more spherical
